Key:
Phytophthora infestans [1] = assay: whole plant or invertebrate; format: in vivo; settings: 144 h, read-out: Efficacy in % of the untreated control
Pyricularia oryzae = assay: microbe, parasite or virus in culture; format: cell-based; settings: for inhibition at 63 µg/mL / inhibition at 0.25 µg/mL / inhibition at 1 µg/mL / inhibition at 4 µg/mL / inhibition at 16 µg/mL: Pyricularia oryzae, read-out: Observed activity (%)
Phytophthora infestans [2] = assay: microbe, parasite or virus in culture; format: cell-based
Botrytis cinerea = assay: Activity against the gray mold pathogen Botrytis cinerea in the microtiter test; format: cell-based; settings: single active compound; for inhibition at 0.25 µg/mL: Conc. 0.25 mg/l; for inhibition at […]: Conc. 0.063 mg/l; for inhibition at 1 µg/mL: Conc. 1 mg/l; for inhibition at 4 µg/mL: Conc. 4 mg/l
[3] = Phytophthora infestans, read-out: Observed activity (%)
[4] = Botrytis cinerea, read-out: Observed activity (%)

COCC(=O)N(c1c(C)cccc1C)C(C)C(=O)OC (racemic) [metalaxyl, methyl N-(methoxyacetyl)-N-(2,6-xylyl)-DL-alaninate, reference compound]
pest or weed control at 16 ppm (Phytophthora infestans [1]): 33%
pest or weed control at 63 ppm (Phytophthora infestans [1]): 56%
inhibition at 63 µg/mL (Pyricularia oryzae): 2%
inhibition at 1 µg/mL (Phytophthora infestans [2]; [3]): 6%
inhibition at 4 µg/mL (Phytophthora infestans [2]; [3]): 9%

Cc1nc2ncnn2c(N)c1-c1ccc(Cl)c(Cl)c1 [Compound I-9, 6-(3,4-dichlorophenyl)-5-methyl-[1,2,4]triazolo[1,5-a]pyrimidin-7-ylamine]
inhibition at 0.25 µg/mL (Botrytis cinerea; [4]): 8%
inhibition at 0.25 µg/mL (Pyricularia oryzae): 7%
inhibition at 1 µg/mL (Pyricularia oryzae): 13%
inhibition at 0.016 µg/mL (Phytophthora infestans [2]; [3]): 1%
inhibition at 0.25 µg/mL (Phytophthora infestans [2]; [3]): 7%
inhibition at […] (Phytophthora infestans [2]; [3]): 6%

Cc1nc2ncnn2c(N)c1-c1ccc(C(C)(C)C)cc1 [Compound I-18, 6-(4-tert-butylphenyl)-5-methyl-[1,2,4]triazolo[1,5-a]pyrimidin-7-ylamine]
inhibition at […] (Botrytis cinerea; [4]): 6%
inhibition at 1 µg/mL (Botrytis cinerea; [4]): 8%
inhibition at 16 µg/mL (Botrytis cinerea; Botrytis cinerea, Conc. 16 mg/l, read-out: Observed activity (%)): 11%
pest or weed control at 16 ppm (Phytophthora infestans [1]): 11%
inhibition at 0.25 µg/mL (Pyricularia oryzae): 15%
inhibition at 1 µg/mL (Pyricularia oryzae): 15%
inhibition at 4 µg/mL (Pyricularia oryzae): 18%
inhibition at 16 µg/mL (Pyricularia oryzae): 29%
inhibition at 0.25 µg/mL (Phytophthora infestans [2]; [3]): 16%
inhibition at 1 µg/mL (Phytophthora infestans [2]; [3]): 45%
inhibition at […] (Phytophthora infestans [2]; [3]): 6%

CCCCCCCCc1c(C)nc2ncnn2c1N [Compound I-25, 5-methyl-6-octyl-[1,2,4]triazolo[1,5-a]pyrimidin-7-ylamine]
inhibition at 0.25 µg/mL (Botrytis cinerea; [4]): 5%
pest or weed control at 16 ppm (Phytophthora infestans [1]): 0%
inhibition at 1 µg/mL (Pyricularia oryzae): 24%
inhibition at 0.25 µg/mL (Phytophthora infestans [2]; [3]): 5%
inhibition at 1 µg/mL (Phytophthora infestans [2]; [3]): 13%
inhibition at […] (Phytophthora infestans [2]; [3]): 4%

Cc1nc2ncnn2c(N)c1CCC(C)CC(C)(C)C (stereo not drawn) [Compound I-28, 5-methyl-6-(3,5,5-trimethylhexyl)-[1,2,4]triazolo[1,5-a]pyrimidin-7-ylamine]
inhibition at 4 µg/mL (Botrytis cinerea; [4]): 0%
pest or weed control at 63 ppm (Phytophthora infestans [1]): 44%
inhibition at 0.25 µg/mL (Pyricularia oryzae): 12%
inhibition at 1 µg/mL (Pyricularia oryzae): 13%
inhibition at 0.016 µg/mL (Phytophthora infestans [2]; [3]): 0%
inhibition at 0.25 µg/mL (Phytophthora infestans [2]; [3]): 14%
inhibition at 1 µg/mL (Phytophthora infestans [2]; [3]): 24%
inhibition at […] (Phytophthora infestans [2]; [3]): 0%

CCCCCCCCc1c(C(F)(F)F)nc2ncnn2c1N [Compound I-98, 6-octyl-5-trifluoromethyl-[1,2,4]triazolo[1,5-a]pyrimidin-7-ylamine]
inhibition at 0.25 µg/mL (Botrytis cinerea; [4]): 4%
inhibition at 1 µg/mL (Botrytis cinerea; [4]): 5%
inhibition at 0.25 µg/mL (Pyricularia oryzae): 0%
inhibition at 1 µg/mL (Pyricularia oryzae): 0%
inhibition at 4 µg/mL (Pyricularia oryzae): 15%
inhibition at 16 µg/mL (Pyricularia oryzae): 43%
inhibition at 0.25 µg/mL (Phytophthora infestans [2]; [3]): 6%
inhibition at 1 µg/mL (Phytophthora infestans [2]; [3]): 16%
inhibition at 4 µg/mL (Phytophthora infestans [2]; [3]): 22%
inhibition at […] (Phytophthora infestans [2]; [3]): 5%

CC(CCc1c(C(F)(F)F)nc2ncnn2c1N)CC(C)(C)C (stereo not drawn) [Compound I-101, 5-trifluoromethyl-6-(3,5,5-trimethylhexyl)-[1,2,4]triazolo[1,5-a]pyrimidin-7-ylamine]
inhibition at 1 µg/mL (Botrytis cinerea; [4]): 1%
inhibition at 1 µg/mL (Pyricularia oryzae): 15%
inhibition at 4 µg/mL (Pyricularia oryzae): 16%
inhibition at 16 µg/mL (Pyricularia oryzae): 25%
inhibition at 0.25 µg/mL (Phytophthora infestans [2]; [3]): 3%
inhibition at 4 µg/mL (Phytophthora infestans [2]; [3]): 9%

CCc1nc2ncnn2c(N)c1CCC(C)CC(C)(C)C (stereo not drawn) [Compound I-113, 5-ethyl-6-(3,5,5-trimethylhexyl)-[1,2,4]triazolo[1,5-a]pyrimidin-7-ylamine]
pest or weed control at 16 ppm (Phytophthora infestans [1]): 22%
inhibition at 4 µg/mL (Pyricularia oryzae): 7%
inhibition at 0.25 µg/mL (Phytophthora infestans [2]; [3]): 3%
inhibition at 4 µg/mL (Phytophthora infestans [2]; [3]): 36%

CCCCCCCCc1nc2ncnn2c(N)c1CC [Compound I-290, 6-ethyl-5-octyl-[1,2,4]triazolo[1,5-a]pyrimidin-7-ylamine]
inhibition at 1 µg/mL (Botrytis cinerea; [4]): 4%
inhibition at 0.25 µg/mL (Phytophthora infestans [2]; [3]): 0%
inhibition at 4 µg/mL (Phytophthora infestans [2]; [3]): 3%
inhibition at […] (Phytophthora infestans [2]; [3]): 0%

O=S(=O)([O-])[O-].[Cu+2] [CuSO4, reference compound]
Observed activity (%) (Botrytis cinerea; Conc. 63 mg/l): 0%
Observed activity (%) (Pyricularia oryzae): 0%

CC1CCN(c2c(-c3c(F)cc(F)cc3F)c(Cl)nc3ncnn23)CC1 [[D-8], 5-chloro-7-(4-methylpiperidin-1-yl)-6-(2,4,6-trifluorophenyl)-[1,2,4]triazolo[1,5-a]pyrimidine, reference compound]
inhibition at 1 µg/mL (Phytophthora infestans [2]; [3]): 43%

CO/C=C(/C(=O)OC)c1ccccc1Oc1cc(Oc2ccccc2C#N)ncn1 [azoxystrobin]
Observed activity (%) (Phytophthora infestans [2]): 21%

COC(=O)C(C)N(C(=O)Cc1ccccc1)c1c(C)cccc1C (stereo not drawn) [benalaxyl]
inhibition at 4 µg/mL (Phytophthora infestans [2]; [3]): 13%

O=C(Nc1ccccc1-c1ccc(Cl)cc1)c1cccnc1Cl [boscalid]
inhibition at 63 µg/mL (Pyricularia oryzae): 12%
inhibition at 1 µg/mL (Phytophthora infestans [2]; [3]): 2%
inhibition at 4 µg/mL (Phytophthora infestans [2]; [3]): 17%

O=C1C2CC=CCC2C(=O)N1SC(Cl)(Cl)Cl (stereo not drawn) [captan, 2-trichloromethylsulfanyl-3a,4,7,7a-tetrahydroisoindole-1,3-dione, reference compound]
inhibition at 1 µg/mL (Pyricularia oryzae): 44%
inhibition at 1 µg/mL (Phytophthora infestans [2]; [3]): 12%

COC(=O)Nc1nc2ccccc2[nH]1 [carbendazim]
inhibition at 0.25 µg/mL (Pyricularia oryzae): 20%

N#Cc1c(Cl)c(Cl)c(Cl)c(C#N)c1Cl [chlorothalonil]
inhibition at 1 µg/mL (Botrytis cinerea; [4]): 55%

Cc1ccc(-c2c(Cl)nc(C#N)n2S(=O)(=O)N(C)C)cc1 [cyazofamid, 4-chloro-2-cyano-N,N-dimethyl-5-(4-methylphenyl)-1H-imidazole-1-sulfon-amide, reference compound]
pest or weed control at 4 ppm (Phytophthora infestans [1]): 33%
inhibition at 4 µg/mL (Pyricularia oryzae): 23%

CC(C1CC1)C(O)(Cn1cncn1)c1ccc(Cl)cc1 (stereo not drawn) [cyproconazole]
inhibition at 4 µg/mL (Pyricularia oryzae): 54%
inhibition at 4 µg/mL (Phytophthora infestans [2]; [3]): 9%

Cc1cc(C2CC2)nc(Nc2ccccc2)n1 [cyprodinil]
inhibition at 4 µg/mL (Phytophthora infestans [2]; [3]): 10%

CC1COC(Cn2cncn2)(c2ccc(Oc3ccc(Cl)cc3)cc2Cl)O1 (stereo not drawn) [difenoconazole]
inhibition at 4 µg/mL (Phytophthora infestans [2]; [3]): 24%

CC1CN(C2CCCCCCCCCCC2)CC(C)O1 (stereo not drawn) [dodemorph]
inhibition at 16 µg/mL (Pyricularia oryzae): 72%

CO/C=C(/C(=O)OC)c1ccccc1CO/N=C(C)/C=C/c1ccc(Cl)cc1 [enestroburin]
Observed activity (%) (Phytophthora infestans [2]): 35%

CSC1=N[C@@](C)(c2ccccc2)C(=O)N1Nc1ccccc1 [fenamidone]
inhibition at […] (Phytophthora infestans [2]; [3]): 40%

O=[N+]([O-])c1cc(C(F)(F)F)c(Cl)c([N+](=O)[O-])c1Nc1ncc(C(F)(F)F)cc1Cl [fluazinam]
inhibition at […] (Botrytis cinerea; [4]): 50%
inhibition at 0.25 µg/mL (Phytophthora infestans [2]; [3]): 9%

CC(C)OC(=O)N[C@H](C(=O)N[C@H](C)c1nc2ccc(F)cc2s1)C(C)C [flubenthiavalicarb]
Observed activity (%) (Phytophthora infestans [2]): 68%

CO/N=C(/C1=NOCCO1)c1ccccc1Oc1ncnc(Oc2ccccc2Cl)c1F [fluoxastrobin]
inhibition at 0.025 µg/mL (Phytophthora infestans [2]; [3]): 2%
inhibition at […] (Phytophthora infestans [2]; [3]): 1%

O=c1c2cc(F)ccc2nc(-n2cncn2)n1-c1ccc(Cl)cc1Cl [fluquinconazole, 3-(2,4-dichlorophenyl)-6-fluoro-2-[1,2,4]-triazol-1-yl-3H-quinazolin-4-one, reference compound]
inhibition at […] (Botrytis cinerea; [4]): 22%
inhibition at 4 µg/mL (Pyricularia oryzae): 0%
inhibition at 1 µg/mL (Phytophthora infestans [2]; [3]): 0%
inhibition at 4 µg/mL (Phytophthora infestans [2]; [3]): 0%

C[Si](Cn1cncn1)(c1ccc(F)cc1)c1ccc(F)cc1 [flusilazole]
inhibition at 0.25 µg/mL (Botrytis cinerea; [4]): 43%
inhibition at 1 µg/mL (Phytophthora infestans [2]; [3]): 0%
inhibition at 4 µg/mL (Phytophthora infestans [2]; [3]): 11%

O=C1c2ccccc2C(=O)N1SC(Cl)(Cl)Cl [folpet]
inhibition at 1 µg/mL (Botrytis cinerea; [4]): 2%
inhibition at 1 µg/mL (Phytophthora infestans [2]; [3]): 6%

CC(C)NC(=O)N1CC(=O)N(c2cc(Cl)cc(Cl)c2)C1=O [iprodione, N-isopropyl-3-(3,5-dichlorophenyl)-2,4-dioxoimidazolidine-1-carboxamide, reference compound]
inhibition at 4 µg/mL (Pyricularia oryzae): 46%

COc1cc(C)c(C(=O)c2c(OC)ccc(Br)c2C)c(OC)c1OC [metrafenone, 3′-bromo-2,3,4,6′-tetramethoxy-2′,6-dimethylbenzophenone, reference compound]
inhibition at 63 µg/mL (Pyricularia oryzae): 42%
inhibition at 4 µg/mL (Phytophthora infestans [2]; [3]): 2%

Cc1cccc(C)c1N(C(=O)CCl)C1CCOC1=O (stereo not drawn) [ofurace]
inhibition at 4 µg/mL (Phytophthora infestans [2]; [3]): 0%
inhibition at 16 µg/mL (Phytophthora infestans [2]; [3]): 19%

COCC(=O)N(c1c(C)cccc1C)N1CCOC1=O [oxadixyl]
inhibition at 1 µg/mL (Phytophthora infestans [2]; [3]): 0%
inhibition at 4 µg/mL (Phytophthora infestans [2]; [3]): 2%
inhibition at 16 µg/mL (Phytophthora infestans [2]; [3]): 17%

CCCN(CCOc1c(Cl)cc(Cl)cc1Cl)C(=O)n1ccnc1 [prochloraz]
inhibition at 16 µg/mL (Phytophthora infestans [2]; [3]): 6%

CCCC1COC(Cn2cncn2)(c2ccc(Cl)cc2Cl)O1 (stereo not drawn) [propiconazole]
inhibition at 1 µg/mL (Phytophthora infestans [2]; [3]): 1%
inhibition at 4 µg/mL (Phytophthora infestans [2]; [3]): 11%
inhibition at 16 µg/mL (Phytophthora infestans [2]; [3]): 12%

OC(Cc1ccccc1Cl)(Cn1nc[nH]c1=S)C1(Cl)CC1 (stereo not drawn) [prothioconazole, 2-[2-(1-chlorocyclopropyl)-3-(2-chlorophenyl)-2-hydroxypropyl]-2,4-dihydro-[1,2,4]triazole-3-thione, reference compound]
inhibition at 4 µg/mL (Botrytis cinerea; [4]): 48%
inhibition at 4 µg/mL (Pyricularia oryzae): 11%

COC(=O)N(OC)c1ccccc1COc1ccn(-c2ccc(Cl)cc2)n1 [pyraclostrobin]
inhibition at 0.016 µg/mL (Phytophthora infestans [2]; [3]): 14%
inhibition at […] (Phytophthora infestans [2]; [3]): 59%

CC(C)(C)C(O)(CCc1ccc(Cl)cc1)Cn1cncn1 (stereo not drawn) [tebuconazole]
inhibition at 0.25 µg/mL (Botrytis cinerea; [4]): 50%
inhibition at 1 µg/mL (Phytophthora infestans [2]; [3]): 8%
inhibition at 4 µg/mL (Phytophthora infestans [2]; [3]): 10%
inhibition at 16 µg/mL (Phytophthora infestans [2]; [3]): 9%

COC(=O)NC(=S)Nc1ccccc1NC(=S)NC(=O)OC [thiophanate-methyl]
inhibition at 0.25 µg/mL (Botrytis cinerea; [4]): 12%

CON=C(C(=O)OC)c1ccccc1CON=C(C)c1cccc(C(F)(F)F)c1 [trifloxystrobin]
inhibition at 0.25 µg/mL (Phytophthora infestans [2]; [3]): 33%
inhibition at 1 µg/mL (Phytophthora infestans [2]; [3]): 46%

C=CC1(C)OC(=O)N(c2cc(Cl)cc(Cl)c2)C1=O (stereo not drawn) [vinclozolin]
inhibition at 1 µg/mL (Botrytis cinerea; [4]): 21%
inhibition at 16 µg/mL (Phytophthora infestans [2]; [3]): 0%

maneb
Observed activity (%) (Pyricularia oryzae): 32%
Observed activity (%) (Phytophthora infestans [2]): 6%

zinc ammoniate ethylenebis(dithiocarbamate) [metiram, reference compound]
Observed activity (%) (Pyricularia oryzae): 26%

Source: patent US8679514B2, “Fungicidal mixtures based on azolopyrimidinylamines” (BASF SE, priority 2005, dated 2014)
